Laboratory results taken from patent US8597920B2, “Class of Chloroflexi-like thermophilic cellulose degrading bacteria” (priority 2008, dated 2013).

Assays:
Chloroflexus isolate T81 [1] = assay: Growth on sole energy sources (metabolism experiments); assay type: cell-based, thermophilic Chloroflexi-like bacteria; conditions: AOM1 (pH 6.5) and FS3V (pH 4.5)
Procedure: (§1) Mineral salts medium FS3V, FeEDTA, Trace elements solution and AOM1 medium were prepared as for Example 1. Energy sources were added to both media prior to autoclaving (0.5 g/L), except where noted, via syringe filter.
(§2) Unless otherwise stated, the following growth conditions were used for all experiments; Chloroflexus strains were grown aerobically at 60° C. in capped 100 mL serum bottles containing 50 mL of medium and 50 mL air headspace. No CO2 was amended to the headspace. Medium was sterilised via autoclaving (121° C., 20 min). Fifty μL of culture was inoculated into 50 mL of sterile medium. Stock Chloroflexus strains were maintained in liquid culture on mannose and on carboxymethylcellulose (CMC), and on phytagel-based solid medium.
(§3) Growth experiments to determine growth using different energy sources were conducted using the basal media, AOM1 or FS3V. No yeast extract (YE) or vitamins were added as growth supplements to either medium in these series of experiments. […] Both the YE and vitamin mix were also tested as sole energy sources.
(§4) Sole energy sources were added at a concentration of (0.5 g/L). […] Yeast extract (Becton Dickinson, 211929), sodium pyruvate (Sigma, P2256), sodium citrate (Ajax Finechem, A467,) and sodium acetate (Sigma, S2881), were also tested as sole energy sources, along with the alcohols methanol (Merck, 1.06018), ethanol (Merck, 1.00983), 1-propanol (Merck, 1.01024), 2-propanol (Merck, 1.01040), pentanol (Sigma, 138975) and butanol (Sigma, 1.01988). A vitamin mix was tested as a sole energy source. The vitamin mixture contained (in 100 mg): 0.8 mg folic acid; 8 mg vitamin B1; 4 mg vitamin B2; 1 mg niacin; 10 mg niacinamide; 15 mg pantothenate; 15 mg pyridoxine; 5 mg cobalamin; 5 mg biotin; 15 mg choline; 15 mg inositol; 7 mg para-amino benzoic acid and was tested at 10 and 100 mg/L.
(§5) Experiments were inoculated using stock cultures of T81, T12 and T26 grown in a corresponding medium with a corresponding energy source type. For example, inoculum for testing growth on a cellulose-based compound was grown in the corresponding medium with a cellulose-based compound as an energy source. All energy sources were added at a concentration of 0.5 g/L prior to autoclave sterilisation, except for D-N-acetylglucosamine, D-(−)-fructose, sodium acetate, sodium citrate, sodium pyruvate, methanol, ethanol, 1-propanol, 2-propanol, pentanol and butanol which were added via filter sterilisation (0.22 μm pore size membrane syringe filter). Tests were conducted in triplicate with a sterile control.

[2] = system: Chloroflexus strains T81, T26 and T12; assay: Growth on energy sources, statements for all three strains together; assay type: cell-based, thermophilic Chloroflexi-like bacteria
Procedure: Growth experiments to determine growth using different energy sources were conducted using the basal media, AOM1 or FS3V. No yeast extract (YE) or vitamins were added as growth supplements to either medium in these series of experiments. Preliminary experiments have shown that they are not requited. Both the YE and vitamin mix were also tested as sole energy sources. Sole energy sources were added at a concentration of (0.5 g/L). […] A vitamin mix was tested as a sole energy source. The vitamin mixture contained (in 100 mg): 0.8 mg folic acid; 8 mg vitamin B1; 4 mg vitamin B2; 1 mg niacin; 10 mg niacinamide; 15 mg pantothenate; 15 mg pyridoxine; 5 mg cobalamin; 5 mg biotin; 15 mg choline; 15 mg inositol; 7 mg para-amino benzoic acid and was tested at 10 and 100 mg/L. Experiments were inoculated using stock cultures of […], T12 and […] grown in a corresponding medium with a corresponding energy source type. For example, inoculum for testing growth on a cellulose-based compound was grown in the corresponding medium with a cellulose-based compound as an energy source. […] Bacterial growth was determined visually as optical density (OD) measurements are not possible due to growth characteristics of the Chloroflexi isolates. […] Cellulose pulp degradation and sugar generation by Chloroflexus strain […] was assessed. […] Growth on the various pulp tablets was assessed visually.

Chloroflexus isolate T12 [3] = conditions: FS3V, pH 4.5; ethanol as sole energy source
Procedure: All three Chloroflexus strains were tested for their ability to grow on elevated levels of ethanol. Ethanol at concentrations of 0.1%, 1.0%, 2.0%, 5.0%, 7.5%, and 10.0% (v/v) were asceptically added into FS3V medium following sterilisation as the sole energy source. Strains were then inoculated and incubated statically.

Strain T81 = assay: Preference for alcohols over saccharides (fructose with ethanol, HPLC); assay type: cell-based, thermophilic Chloroflexi-like bacteria; conditions: FS3V, 60° C.
Procedure: Unless otherwise stated, sugars and/or alcohols were measured on a Dionex Ultimate 3000® High Performance Liquid Chromatography (HPLC) unit via refractive index (RI) on a Shodex RI-101 unit (Dionex, Utah, USA). The RI unit was run at 35° C. Samples (10 μL) were injected into a degassed water carrier solution running at 0.6 mL/min. Samples were separated on a Varian PL Hi-Plex H (8 μm, 300×7.7 mm) at 60° C. (Varian, Massachusetts, USA). Chromatographs were interpreted using Chromeleon® software (Dionex, Utah, USA). Strain […] was also tested for it's preference for alcohols over saccharides. […] Strain […] was inoculated and incubated statically at 60° C. One milliliter samples were taken daily and frozen for analysis using HPLC.

Chloroflexus isolate T12 [4] = assay: Growth on sole energy sources (metabolism experiments); assay type: cell-based, thermophilic Chloroflexi-like bacteria; conditions: for Growth of T12 on alcohol as sole energy source, FS3V: alcohol 0.05% v/v, aerobic, 60° C.
Procedure: as §1, §2, §3, §4, §5

Chloroflexus isolate T81 [5] = assay: as above; assay type: cell-based, thermophilic Chloroflexi-like bacteria; conditions: aerobic, 60° C.; for Growth of T81 on alcohol as sole energy source, FS3V: alcohol 0.05% v/v; for Growth of T81 on sole energy source, FS3V: FS3V medium (pH 4.5), energy source 0.5 g/L
Chloroflexus isolate T26 = assay: as above; assay type: cell-based, thermophilic Chloroflexi-like bacteria; conditions: aerobic, 60° C.; for Growth of T26 on sole energy source, AOM1: AOM1 medium (pH 6.5), energy source 0.5 g/L
Procedure: as §1, §2, §3, §4, §5

In the case of `O=C[C@H](O)[C@@H](O)[C@H](O)[C@H](O)CO` [D-glucose], the “Growth of T81 on both media” value (Chloroflexus isolate T81 [1]) is reported as “grew”.

In the case of `OC[C@H]1O[C@H](O[C@H]2[C@H](O)[C@@H](O)[C@H](O)O[C@@H]2CO)[C@H](O)[C@@H](O)[C@@H]1O` [D-(+)-maltose], the “Growth of T81 on both media” value (Chloroflexus isolate T81 [1]) is reported as “grew”.

With `CCO` [ethanol] the “Ethanol concentrations all strains were able to grow on, up to (and including)” value ([2]; FS3V, ethanol as sole energy source) was ≤ 2.0 % (v/v), the “Ethanol concentrations Strain T12 was able to grow on, up to (and including)” value (Chloroflexus isolate T12 [3]) was ≤ 5.0 % (v/v) and the “Effect of ethanol on growth of strain T81” value (Strain T81; 5% (w/v) ethanol and 0.05% (w/v) fructose) was “inhibited the growth”.

With `CCCCCO` [1-pentanol] the “Growth of T12 on alcohol as sole energy source, FS3V” value (Chloroflexus isolate T12 [4]) was “exception” and the “Growth of T81 on alcohol as sole energy source, FS3V” value (Chloroflexus isolate T81 [5]) was “exception”.

In the case of `O=C(CO)[C@@H](O)[C@H](O)[C@H](O)CO` [D-(−)-fructose], the “Growth of T81 on both media” value (Chloroflexus isolate T81 [1]) is reported as “grew” and the “Consumption by T81 in presence of ethanol and fructose” value (Strain T81; ethanol (0.05% w/v) and fructose (0.05% w/v)) is reported as “consumed fructose in preference to ethanol”.

In the case of `O=C[C@H](O)[C@@H](O)[C@@H](O)[C@H](O)C(=O)O` [galacturonic acid], the “Support of growth / energy for the isolates T81, T26 and T12” value ([2]; sole energy sources, AOM1 or FS3V) is reported as “did not support growth”.

`O=C[C@@H](O)[C@H](O)[C@H](O)CO` [D-(+)-arabinose] was tested, and the “Growth of T81 on sole energy source, FS3V” value (Chloroflexus isolate T81 [5]) was “grew”.

butanol was tested, and the “Growth of T12 on alcohol as sole energy source, FS3V” value (Chloroflexus isolate T12 [4]) was “exception”.

For `OC[C@H]1O[C@H](OC[C@H]2O[C@H](O[C@]3(CO)O[C@H](CO)[C@@H](O)[C@@H]3O)[C@H](O)[C@@H](O)[C@@H]2O)[C@H](O)[C@@H](O)[C@H]1O` [raffinose], the “Growth of T81 on both media” value (Chloroflexus isolate T81 [1]) was “grew”.

In the case of `O=C[C@@H](O)[C@@H](O)[C@H](O)[C@H](O)CO` [D-(+)-mannose], the “Growth of Strain T12 in AOM1 medium adjusted to pH 4.5” value (Chloroflexus isolate T12 [4]; AOM1 medium adjusted to pH 4.5) is reported as “able to grow” and the “Growth of T81 on both media” value (Chloroflexus isolate T81 [1]) is reported as “grew”.

In the case of `O=C[C@H](O)[C@@H](O)[C@H](O)CO` [D-(+)-xylose], the “Growth of T81 on both media” value (Chloroflexus isolate T81 [1]) is reported as “grew”.

In the case of `OC[C@H]1O[C@@H](O[C@H]2[C@H](O)[C@@H](O)[C@H](O)O[C@@H]2CO)[C@H](O)[C@@H](O)[C@@H]1O` [D-(+)-cellobiose], the “Growth of T26 on sole energy source, AOM1” value (shortened to “Growth of T26 … AOM1”) (Chloroflexus isolate T26) is reported as “could grow” and the “Growth of T81 on both media” value (Chloroflexus isolate T81 [1]) is reported as “grew”.

With `OC[C@H]1O[C@H](O[C@H]2O[C@H](CO)[C@@H](O)[C@H](O)[C@H]2O)[C@H](O)[C@@H](O)[C@@H]1O` [D-(+)-trehalose] the “Growth of T81 on both media” value (Chloroflexus isolate T81 [1]) was “grew”.

For `O=C[C@H](O)[C@H](O)[C@H](O)CO` [D-(−)-ribose], the “Growth of T81 on sole energy source, FS3V” value (Chloroflexus isolate T81 [5]) was “grew”.

In the case of `CCCO` [propanol], the “Growth of T26 on alcohol as sole energy source, FS3V” value (Chloroflexus isolate T26; FS3V, alcohol 0.05% v/v) is reported as “best growth” and the “Growth of T81 on alcohol as sole energy source, FS3V” value (Chloroflexus isolate T81 [5]) is reported as “best growth”.

In the case of `C[C@@H]1O[C@@H](O)[C@H](O)[C@H](O)[C@H]1O.O` [L-rhammnose monohydrate], the “Growth of T26 … AOM1” value (Chloroflexus isolate T26; listed as L-rhamnose monohydrate, monohydrate) is reported as “could grow” and the “Growth of T81 on both media” value (Chloroflexus isolate T81 [1]) is reported as “grew”.

For `CC(=O)N[C@H]1C(O)O[C@H](CO)[C@@H](O)[C@@H]1O` (stereo partly drawn) [D-N-acetylglucosamine], the “Growth of T26 … AOM1” value (Chloroflexus isolate T26; listed as D-N-actylglucosamine) was “could grow”.

In the case of `OC[C@H]1O[C@@](CO)(O[C@H]2O[C@H](CO)[C@@H](O)[C@H](O)[C@H]2O)[C@@H](O)[C@@H]1O` [sucrose], the “Growth of T81 on both media” value (Chloroflexus isolate T81 [1]) is reported as “grew”.

In the case of `O=C[C@H](O)[C@@H](O)[C@@H](O)[C@H](O)CO` [D-(+)-galactose], the “Growth of T81 on both media” value (Chloroflexus isolate T81 [1]) is reported as “grew”.
